Read-outs that look alike come from different tables or passages of the source.
Experiments:
[1] = tested on: β-cells (dispersed rat islet cells); test: primary islet β-cell replication assay (PDX-1/ki-67 co-staining, automated imaging); format: cell-based
Procedure: Rat islets were isolated as previously described in Gotoh M, Maki T, Kiyoizumi T, Satomi S, Monaco A P: An improved method for isolation of mouse pancreatic islets. Transplantation 40:437-438, 1985, contents of which are herein incorporated by reference in their entirety. Isolated islets were cultured overnight in a tissue culture incubator. The following morning, islets were trypsinized into cellular clusters of 1-3 cells, re-suspended in islet media (Mediatech 99-786-CV; 10% FBS serum (Valley Biomedial BS3033); 8.3 mM Glucose (Sigma G7528); 1× Penicillin/Streptomycin (Invitrogen 15070-063); 1× Glutamax (Invitrogen 35050-079)) and plated into the wells of a 96-well plate (Sigma CLS3904) that had been coated with 804G (a rat bladder carcinoma cell line) conditioned media. The cellular plating density was 60 k cells/well and greater than 95% viability was confirmed at the time of plating. […] For screening, compounds were tested at 1 uM concentration in duplicate. After 24-hours of compound treatment, cells were fixed with fresh 4% PFA (Electron Microscopy Services 15710) for 20 minutes and washed with PBS (VWR 45000-446). Antigen retrieval was performed by heating the cells to 90 degrees Celsius in 0.1 mM EDTA (Ambion AM9260G) in PBS. Cells were then washed and permeabalized with PBS/0.3% Triton X-100 (J.T.Baker X198-07) for 15 minutes. Immunocytochemical staining was then performed as follows. Antigen blocking was performed with 5% normal donkey serum (Jackson ImmunoResearch 017-000-121) in PBS for an hour. Staining was performed by overnight incubation with primary antibody at 4 degrees Celsius. For the primary screen, PDX-1 antibody (R&D AF2419) was used to reveal beta-cells and ki-67 antibody (BD Bioscience 556003) to visualize proliferating cells. Without wishing to be bound by theory, the failure of prior beta-cell replication screens is primarily a consequence of using a cytoplasmic marker (Insulin) as the β-cell identifier. The use of a cytoplasmic marker prevents accurate attribution of nuclear replication to a specific cell identity i.e., in dense culture it is impossible to attribute a cytoplasm to a specific nucleus given the proximity to multiple nuclei. Additional Immunohistochemistry antibodies included Phosphohistone 3 (Millipore 06-570), Insulin (Dako A0564), Glucagon (Millipore 4031-01F) and Vimentin (Millipore ab5733). For western blotting anti-bodies included ADK (Abcam ab38010, ab64825) and RAN (BD Bioscience 610340) as a loading control.
Once compound-treated islet cells were stained, β-cell replication was assessed via automated image acquisition and analysis using a Cellomics ArrayScanVTI. The acquisition thresholds/parameters were established such that the computer-based calls of replication events were consistent with human-based calls. The parameters used were directed at the identification of (1) PDX-1+ cells and (2) ki-67 positive staining within the PDX-1 positive area. The algorithm was a three step process. First the nuclear area was predicted by the software based upon the expected PDX-1 staining pattern. Second PDX-1 positive cells (selected objects) were counted based upon the average staining intensity within the predicted nuclear area (Note: total signal intensity was essentially equal in quality but was not typically used). Third, the number of PDX-1 positive cells (selected objects) that simultaneously were Ki-67 positive was determined by determining the average fluorescence intensity of ki-67 staining within the predicted nuclear area (again, total intensity was also occasionally used with equal efficacy). The specific thresholds (fluorescence intensities) varied from experiment to experiment. In general, the basal replication rate was set at roughly 1% i.e., the algorithm was varied until 1% of DMSO treated PDX+ cells were reported to be double positive for PDX-1 and ki67. […]

[2] = tested on: mouse dermal fibroblasts; test: Ki-67 proliferation of mouse dermal fibroblasts; format: cell-based; details: A10 0.019-10 uM
Procedure: Using a protocol similar to as described in Example 1, β-cells or mouse dermal fibroblasts were treated with 10 uM, 5 uM, 2.5 uM, 1.25 um, 0.625 uM, 0.3125 uM, 0.156 uM, 0.078 uM, 0.04 uM, or 0.019 uM of A10.

[3] = tested on: murine hepatocytes
Procedure: Total cell number was assessed with DAPI and replicating cells were ki-67^+. The Cellomics ArrayScanVTI was used for image acquisition and analysis.

## Nc1ncnc2c1c(I)cn2[C@@H]1O[C@H](CO)[C@@H](O)[C@H]1O [A10, 5-iodotubercidin]
[1]; 1 uM, 24 hours
  induction of β-cell replication in the screening assay: 2.3 fold
[1]; 5-IT 2 μM plus high glucose
  induction of the replication rate above the base-line rate, combination with high glucose: 5 fold
[1]; 24 h, 5-IT 2 μM plus GLP-1 or Ex-4
  β-cell replication effect of addition of 5-IT to the GLP-1R agonists: ~4 fold
[1]; 24 h, 5-IT 2 μM, GLP-1 and Ex-4 20 nM and 4 nM, normalized to DMSO
  increase of β-cell replication: ~2.5 fold
[1]; A10 2 μM, 0-25 mM glucose
  effect of glucose concentration on % beta-cell replication in treated samples: little effect
[1]; A10 2 μM, 0.2%, 2.0% or 20% serum
  % Ki-67 positive cells versus serum concentration: increased with increasing serum concentration
[1]; A10 0.019-10 uM, B8 0.23-30 uM
  % of Ki-67 positive β-cells (PDX-1 and Ki-67 positive cells), dose curve: increase in a dose dependent manner
[1]; FIG. 13c dose-response curves, read-out: EC50, β-cell proliferation in rat islet cultures
  EC50: 4700 nM
[1]; dose curves FIG. 2a (A10) and FIG. 3 (B8), Ki-67 positive β-cells, read-out: EC50 for β-cell proliferation
  EC50: 470 nM
[2]
  % Ki-67 positive mouse dermal fibroblasts: did not change
[3]
  tolerability by cultured hepatocytes: not well tolerated
